According to ChEMBL document CHEMBL6153110, “Peptide Double-Stapling and Arginine N-Glycosylation Triggered the Development of Therapeutic Antimicrobial Peptides Capable of Killing Drug-Resistant Bacteria in Mice” (J Med Chem, 2025):
Values after ≈ are worked out from the molar mass of the structure shown. Starred links: 1 amine or outer side, 2 acyl side, 3 side chain; linkers in the order of their positions; H or OH if unused. Positions of bridges follow the written chain, without caps; N, C: chain ends. Non-standard residues stand in square brackets, D forms with d. Residues, ends and D or L forms follow the SMILES beside them. X1 = N=C(NCCC[C@H](N[*:1])C(=O)[*:2])N[C@@H]1O[C@H](CO)[C@@H](O[C@H]2O[C@H](CO)[C@@H](O[C@H]3O[C@H](CO)[C@@H](O)[C@H](O)[C@H]3O)[C@H](O)[C@H]2O)[C@H](O)[C@H]1O; Arg(Nω-βLac) = N=C(NCCC[C@H](N)C(=O)O)N[C@@H]1O[C@H](CO)[C@@H](O[C@@H]2O[C@H](CO)[C@H](O)[C@H](O)[C@H]2O)[C@H](O)[C@H]1O; R8 = C=CCCCCCC[C@@](C)(N)C(=O)O; S5 = C=CCCC[C@](C)(N)C(=O)O

Key:
[1] = tested on: Streptococcus pneumoniae; test: Antimicrobial activity against Streptococcus pneumoniae ATCC 49619 assessed as growth inhibition measured after 8 hrs incubation by standard broth dilution assay; assay type: functional
[2] = tested on: Staphylococcus aureus; test: Antimicrobial activity against methicillin-resistant Staphylococcus aureus ATCC 43300 assessed as growth inhibition measured after 8 hrs incubation by standard broth dilution assay; assay type: functional
[3] = Hemolytic activity in BALB/c mouse red blood cells assessed as hemolysis incubated for 1 hrs; assay type: toxicity, cell-based, Erythrocyte; details: read-out: HD50
[4] = tested on: Klebsiella pneumoniae; test: Antimicrobial activity against Klebsiella pneumoniae ATCC 13883 assessed as growth inhibition measured after 8 hrs incubation by standard broth dilution assay; assay type: functional
[5] = tested on: Pseudomonas aeruginosa; test: Antimicrobial activity against Pseudomonas aeruginosa ATCC 27853 assessed as growth inhibition measured after 8 hrs incubation by standard broth dilution assay; assay type: functional

| SMILES | MIC [1] [µg/mL] | MIC [2] [µg/mL] | HC50 at 1 h [3] [µg/mL] | MIC [4] [µg/mL] | MIC [5] [µg/mL] |
| --- | --- | --- | --- | --- | --- |
| CC(=O)N[C@@H](CCCCN)C(=O)N[C@@H](CCCCN)C(=O)N[C@@H](CCCNC(=N)N)C(=O)N[C@H](C(=O)N[C@@H](CCCCN)C(=O)N[C@@H](CCCCN)C(=O)N[C@@H](CCCNC(=N)N)C(=O)N[C@@]1(C)CCC/C=C\CCC[C@@](C)(C(=O)N[C@@H](CCCCN)C(=O)N[C@@]2(C)CCC/C=C\CCC[C@@](C)(C(=O)N[C@@H](CC(C)C)C(=O)N[C@@H](CCCCN)C(=O)N[C@@H](CCCCN)C(=O)N3CCC[C@H]3C(=O)N[C@H](C(=O)N[C@@H](CCCNC(=N)N[C@@H]3O[C@H](CO)[C@@H](O[C@H]4O[C@H](CO)[C@@H](O[C@H]5O[C@H](CO)[C@@H](O)[C@H](O)[C@H]5O)[C@H](O)[C@H]4O)[C@H](O)[C@H]3O)C(N)=O)C(C)C)NC(=O)[C@H](CCCNC(=N)N)NC(=O)[C@H](Cc3c[nH]c4ccccc34)NC(=O)[C@H](Cc3ccc(O)cc3)NC2=O)NC(=O)[C@H](CC(C)C)NC(=O)[C@H](CCCCN)NC(=O)[C@H](Cc2ccccc2)NC1=O)C(C)C (Ac-KKRVKKR[S5]FKL[S5]K[S5]YWR[S5]LKKPV[X1]-NH2; staple (Z) 8-12, 14-18) | 1.1 (≈ 0.296 µM) | 1.1 (≈ 0.296 µM) | 80.8 | 1.1 (≈ 0.296 µM) | 2.6 (≈ 0.7 µM) |
| CC(=O)N[C@@H](CC(C)C)C(=O)N[C@@H](CCCCN)C(=O)N[C@@H](CCCNC(=N)N[C@@H]1O[C@H](CO)[C@@H](O[C@@H]2O[C@H](CO)[C@H](O)[C@H](O)[C@H]2O)[C@H](O)[C@H]1O)C(=O)N[C@H](C(=O)N[C@@H](Cc1c[nH]c2ccccc12)C(=O)N[C@@H](CCCCN)C(=O)N[C@@H](CCCNC(=N)N)C(=O)N[C@H](C(=O)N[C@@H](Cc1ccccc1)C(=O)N[C@@H](CCCCN)C(=O)N[C@@H](CC(C)C)C(=O)N[C@@H](CC(C)C)C(=O)N[C@@H](CCCCN)C(=O)N[C@@H](CCCNC(=N)N)C(=O)N[C@@H](Cc1ccc(O)cc1)C(=O)N[C@@H](Cc1c[nH]c2ccccc12)C(=O)N[C@@H](CCCNC(=N)N)C(=O)N[C@@H](CCC(N)=O)C(=O)N[C@@H](CC(C)C)C(=O)N[C@@H](CCCCN)C(=O)N[C@@H](CCCCN)C(=O)N1CCC[C@H]1C(=O)N[C@H](C(=O)N[C@@H](CCCNC(=N)N)C(N)=O)C(C)C)C(C)C)C(C)C (Ac-LK[Arg(Nω-βLac)]VWKRVFKLLKRYWRQLKKPVR-NH2) | 9.9 (≈ 2.76 µM) | 4.9 (≈ 1.36 µM) | 33.8 | 38 (≈ 10.6 µM) | 5 (≈ 1.39 µM) |
| CC(=O)N[C@@H](CC(C)C)C(=O)N[C@@H](CCCCN)C(=O)N[C@@H](CCCNC(=N)N)C(=O)N[C@H](C(=O)N[C@@H](Cc1c[nH]c2ccccc12)C(=O)N[C@@H](CCCCN)C(=O)N[C@@H](CCCNC(=N)N)C(=O)N[C@H](C(=O)N[C@@H](Cc1ccccc1)C(=O)N[C@@H](CCCCN)C(=O)N[C@@H](CC(C)C)C(=O)N[C@@H](CC(C)C)C(=O)N[C@@H](CCCCN)C(=O)N[C@@H](CCCNC(=N)N)C(=O)N[C@@H](Cc1ccc(O)cc1)C(=O)N[C@@H](Cc1c[nH]c2ccccc12)C(=O)N[C@@H](CCCNC(=N)N)C(=O)N[C@@H](CCC(N)=O)C(=O)N[C@@H](CC(C)C)C(=O)N[C@@H](CCCCN)C(=O)N[C@@H](CCCCN)C(=O)N1CCC[C@H]1C(=O)N[C@H](C(=O)N[C@@H](CCCNC(=N)N[C@@H]1O[C@H](CO)[C@@H](O[C@H]2O[C@H](CO)[C@@H](O[C@H]3O[C@H](CO)[C@@H](O)[C@H](O)[C@H]3O)[C@H](O)[C@H]2O)[C@H](O)[C@H]1O)C(N)=O)C(C)C)C(C)C)C(C)C (Ac-LKRVWKRVFKLLKRYWRQLKKPV[X1]-NH2) | 4.7 (≈ 1.25 µM) | 4.9 (≈ 1.31 µM) | 45.7 | 38 (≈ 10.1 µM) | 2.6 (≈ 0.693 µM) |
| CC(=O)N[C@@H](CC(C)C)C(=O)N[C@@H](CCCCN)C(=O)N[C@@H](CCCNC(=N)N[C@@H]1O[C@H](CO)[C@@H](O[C@H]2O[C@H](CO)[C@@H](O[C@H]3O[C@H](CO)[C@@H](O)[C@H](O)[C@H]3O)[C@H](O)[C@H]2O)[C@H](O)[C@H]1O)C(=O)N[C@H](C(=O)N[C@@H](Cc1c[nH]c2ccccc12)C(=O)N[C@@H](CCCCN)C(=O)N[C@@H](CCCNC(=N)N)C(=O)N[C@H](C(=O)N[C@@H](Cc1ccccc1)C(=O)N[C@@H](CCCCN)C(=O)N[C@@H](CC(C)C)C(=O)N[C@@H](CC(C)C)C(=O)N[C@@H](CCCCN)C(=O)N[C@@H](CCCNC(=N)N)C(=O)N[C@@H](Cc1ccc(O)cc1)C(=O)N[C@@H](Cc1c[nH]c2ccccc12)C(=O)N[C@@H](CCCNC(=N)N)C(=O)N[C@@H](CCC(N)=O)C(=O)N[C@@H](CC(C)C)C(=O)N[C@@H](CCCCN)C(=O)N[C@@H](CCCCN)C(=O)N1CCC[C@H]1C(=O)N[C@H](C(=O)N[C@@H](CCCNC(=N)N)C(N)=O)C(C)C)C(C)C)C(C)C (Ac-LK[X1]VWKRVFKLLKRYWRQLKKPVR-NH2) | 16.9 (≈ 4.5 µM) | 2.5 (≈ 0.666 µM) | 58.1 | 38 (≈ 10.1 µM) | 5 (≈ 1.33 µM) |
| CC(=O)N[C@@H](CCCCN)C(=O)N[C@@H](CCCCN)C(=O)N[C@@H](CCCNC(=N)N)C(=O)N[C@H](C(=O)N[C@@H](Cc1c[nH]c2ccccc12)C(=O)N[C@@H](CCCCN)C(=O)N[C@@H](CCCNC(=N)N)C(=O)N[C@@]1(C)CCC/C=C\CCC[C@@](C)(C(=O)N[C@@H](CCCCN)C(=O)N[C@@]2(C)CCC/C=C\CCC[C@@](C)(C(=O)N[C@@H](CC(C)C)C(=O)N[C@@H](CCCCN)C(=O)N[C@@H](CCCCN)C(=O)N3CCC[C@H]3C(=O)N[C@H](C(=O)N[C@@H](CCCNC(=N)N)C(N)=O)C(C)C)NC(=O)[C@H](CCCNC(=N)N)NC(=O)[C@H](Cc3c[nH]c4ccccc34)NC(=O)[C@H](Cc3ccc(O)cc3)NC2=O)NC(=O)[C@H](CC(C)C)NC(=O)[C@H](CCCCN)NC(=O)[C@H](Cc2ccccc2)NC1=O)C(C)C (Ac-KKRVWKR[S5]FKL[S5]K[S5]YWR[S5]LKKPVR-NH2; staple (Z) 8-12, 14-18) | 2.4 (≈ 0.73 µM) | 4.9 (≈ 1.49 µM) | 15.3 | 4.6 (≈ 1.4 µM) | 5 (≈ 1.52 µM) |
| CC(=O)N[C@@H](CC(C)C)C(=O)N[C@@H](CCCCN)C(=O)N[C@@H](CCCNC(=N)N)C(=O)N[C@H](C(=O)N[C@@H](Cc1c[nH]c2ccccc12)C(=O)N[C@@H](CCCCN)C(=O)N[C@@H](CCCNC(=N)N)C(=O)N[C@H](C(=O)N[C@@H](Cc1ccccc1)C(=O)N[C@@H](CCCCN)C(=O)N[C@@H](CC(C)C)C(=O)N[C@@H](CCCCN)C(=O)N[C@@H](CCCCN)C(=O)N[C@@]1(C)CCC/C=C\CCC[C@@](C)(C(=O)N[C@@H](CC(C)C)C(=O)N[C@@H](CCCCN)C(=O)N[C@@H](CCCCN)C(=O)N2CCC[C@H]2C(=O)N[C@H](C(=O)N[C@@H](CCCNC(=N)N)C(N)=O)C(C)C)NC(=O)[C@H](CCCNC(=N)N)NC(=O)[C@H](Cc2c[nH]c3ccccc23)NC(=O)[C@H](Cc2ccc(O)cc2)NC1=O)C(C)C)C(C)C (Ac-LKRVWKRVFKLKK[S5]YWR[S5]LKKPVR-NH2; staple (Z) 14-18) | 4.7 (≈ 1.45 µM) | 10.1 (≈ 3.11 µM) | 70.1 | 38 (≈ 11.7 µM) | 5 (≈ 1.54 µM) |
| CC(=O)N[C@@H](CCCCN)C(=O)N[C@@H](CCCCN)C(=O)N[C@@H](CCCNC(=N)N)C(=O)N[C@@]1(C)CCC/C=C\CCC[C@@](C)(C(=O)N[C@@H](Cc2ccccc2)C(=O)N[C@@H](CCCCN)C(=O)N[C@@H](CC(C)C)C(=O)N[C@@H](CC(C)C)C(=O)N[C@@H](CCCCN)C(=O)N[C@@]2(C)CCC/C=C\CCC[C@@](C)(C(=O)N[C@@H](CC(C)C)C(=O)N[C@@H](CCCCN)C(=O)N[C@@H](CCCCN)C(=O)N3CCC[C@H]3C(=O)N[C@H](C(=O)N[C@@H](CCCNC(=N)N)C(N)=O)C(C)C)NC(=O)[C@H](CCCNC(=N)N)NC(=O)[C@H](Cc3c[nH]c4ccccc34)NC(=O)[C@H](Cc3ccc(O)cc3)NC2=O)NC(=O)[C@H](CCCNC(=N)N)NC(=O)[C@H](CCCCN)NC(=O)[C@H](Cc2c[nH]c3ccccc23)NC1=O (Ac-KKR[S5]WKR[S5]FKLLK[S5]YWR[S5]LKKPVR-NH2; staple (Z) 4-8, 14-18) | 4.7 (≈ 1.42 µM) | 4.9 (≈ 1.48 µM) | 10.5 | 4.9 (≈ 1.48 µM) | 5 (≈ 1.52 µM) |
| CC(=O)N[C@@H](CC(C)C)C(=O)N[C@]1(C)CCCCCC/C=C\CCC[C@@](C)(C(=O)N[C@@H](CCCCN)C(=O)N[C@@H](CC(C)C)C(=O)N[C@@H](CC(C)C)C(=O)N[C@@H](CCCCN)C(=O)N[C@@H](CCCNC(=N)N)C(=O)N[C@@H](Cc2ccc(O)cc2)C(=O)N[C@@H](Cc2c[nH]c3ccccc23)C(=O)N[C@@H](CCCNC(=N)N)C(=O)N[C@@H](CCC(N)=O)C(=O)N[C@@H](CC(C)C)C(=O)N[C@@H](CCCCN)C(=O)N[C@@H](CCCCN)C(=O)N2CCC[C@H]2C(=O)N[C@H](C(=O)N[C@@H](CCCNC(=N)N)C(N)=O)C(C)C)NC(=O)[C@H](C(C)C)NC(=O)[C@H](CCCNC(=N)N)NC(=O)[C@H](CCCCN)NC(=O)[C@H](Cc2c[nH]c3ccccc23)NC(=O)[C@H](C(C)C)NC(=O)[C@H](CCCNC(=N)N)NC1=O (Ac-L[R8]RVWKRV[S5]KLLKRYWRQLKKPVR-NH2; staple (Z) 2-9) | 37.7 (≈ 11.5 µM) | 9.7 (≈ 2.95 µM) | – | 38 (≈ 11.6 µM) | 9.8 (≈ 2.98 µM) |
| CC(=O)N[C@@H](CC(C)C)C(=O)N[C@@H](CCCCN)C(=O)N[C@@H](CCCNC(=N)N)C(=O)N[C@H](C(=O)N[C@@H](Cc1c[nH]c2ccccc12)C(=O)N[C@@H](CCCCN)C(=O)N[C@@H](CCCNC(=N)N)C(=O)N[C@H](C(=O)N[C@@H](Cc1ccccc1)C(=O)N[C@@H](CCCCN)C(=O)N[C@@H](CC(C)C)C(=O)N[C@]1(C)CCCCCC/C=C\CCC[C@@](C)(C(=O)N[C@@H](CCCCN)C(=O)N[C@@H](CCCCN)C(=O)N2CCC[C@H]2C(=O)N[C@H](C(=O)N[C@@H](CCCNC(=N)N)C(N)=O)C(C)C)NC(=O)[C@H](CCC(N)=O)NC(=O)[C@H](CCCNC(=N)N)NC(=O)[C@H](Cc2c[nH]c3ccccc23)NC(=O)[C@H](Cc2ccc(O)cc2)NC(=O)[C@H](CCCNC(=N)N)NC(=O)[C@H](CCCCN)NC1=O)C(C)C)C(C)C (Ac-LKRVWKRVFKL[R8]KRYWRQ[S5]KKPVR-NH2; staple (Z) 12-19) | 4.7 (≈ 1.41 µM) | 4.9 (≈ 1.47 µM) | – | 38 (≈ 11.4 µM) | 2.6 (≈ 0.78 µM) |
